This is an account of results in ChEMBL document CHEMBL2150907, “BACE-Inhibitors: Potential Treatment of Alzheimer Disease, Dementia, and Related Neurodegenerative Diseases. C. Spiro-Heterocyclic Derivatives: Patent Highlight” (ACS Med Chem Lett, 2012).

As usually defined, the IC50 is the point on the concentration scale where inhibition reaches its midpoint.

Chain of Beta-secretase 1 (P56817 whole entry): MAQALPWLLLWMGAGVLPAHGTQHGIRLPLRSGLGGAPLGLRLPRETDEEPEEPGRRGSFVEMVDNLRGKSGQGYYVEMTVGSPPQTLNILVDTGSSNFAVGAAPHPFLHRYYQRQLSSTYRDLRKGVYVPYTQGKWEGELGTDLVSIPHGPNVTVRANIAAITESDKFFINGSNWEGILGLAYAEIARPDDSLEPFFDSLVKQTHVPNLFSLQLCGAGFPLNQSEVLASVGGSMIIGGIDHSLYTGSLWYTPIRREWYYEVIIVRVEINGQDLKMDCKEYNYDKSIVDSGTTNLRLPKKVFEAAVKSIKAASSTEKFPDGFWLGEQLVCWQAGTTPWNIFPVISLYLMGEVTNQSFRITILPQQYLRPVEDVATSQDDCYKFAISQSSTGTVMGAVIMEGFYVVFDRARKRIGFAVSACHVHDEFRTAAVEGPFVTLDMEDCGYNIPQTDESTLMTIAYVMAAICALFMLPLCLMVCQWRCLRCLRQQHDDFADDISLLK

The assay concerns the target Beta-secretase 1 (Homo sapiens, UniProt P56817). Put plainly: Inhibition of BACE1-mediated amyloid beta (1 to 40) production after 48 hrs by cell based HTRF immunoassay. On the technique in general: In TR-FRET formats the signal depends on donor and acceptor labels being close together.
`CN1C(=O)CC2(N=C1N)c1cc(-c3cc(F)cc(Cl)c3)ccc1OC1CC3(CC[C@@H]12)OCCO3` (stereo partly drawn) displayed a 50% inhibitory concentration (IC50) of 3080 nM.

Compound `NC1=N[C@]2(CO1)c1cc(-c3cncc(Cl)c3)ccc1OC1OC[C@H](OCC3CC3)C[C@@H]12` (mixture of isomers) came in with a concentration for half-maximal inhibition (IC50) of 8.9 nM. Regarding `NC1=N[C@@]2(CO1)c1cc(-c3cncc(Cl)c3)ccc1OC1OC[C@H](OCC3CC3)C[C@@H]12` (single isomer, unassigned), inhibition was half-maximal at 7.8 nM (IC50).
